Tests used:
[1] = [18F] isotope exchange of [18/19F]-(3), dissociation rate of [18F]-fluoride from the trifluoroborate; type: physicochemical; settings: 200 mM PO4, pH 7.5, 100 mM [19F]-NaF
Protocol: [^18F] Isotope Exchange—Using the Low-Activity Radiochemical Synthesis of [^18/19F]-(3).
In order to assay the dissociation rate of [^18F]-fluoride from the trifluoroborate (3), The six aliquots of Sample-A (each 10 μL, 1.5 nmol [^18/19F]-(3), 0.45 μCi (t=184 min)) were diluted 30 fold into 300 μL of a 200 mM PO4, pH 7.5, 100 mM [^19F]—NaF solution at different times. A volume of 0.5 μL of each dilution was spotted on a TLC plate which is run 2 inches in a 5:95 NH4OH:ethanol developing solution. Each spot that was deposited on the plate had spent increasing amounts of time in the solution containing a vast excess of [^19F]-fluoride. Following autoradiography, a rate constant for the isotopic exchange of [^18F]-fluoride from [^18/19F]-(3) was calculated.

[2] = Rate of defluorination (18F/19F isotopic exchange) of aryltrifluoroborates, TLC autoradiography; type: physicochemical; settings: FIGS. 1-4, time points 0-180 minutes after labeling
Protocol: A solution of boronic acid/ester at approximately 200 mM in 3 μl DMF is made, and 3 μL of aqueous fluoride at 800 mM added, comprising ˜1 mCi of carrier free ^18F (˜0.6 pmol of ^18F) and carrier ^19F in the form of KHF2 in 800 mM HOAc at pH 3-4, in a total volume of 10 μl at 10 mM total, providing 100 nmol of total fluoride at a pH of 4.5. Following a one hour labeling reaction at room temperature, the extent of fluorination as well as the stability with regards to isotopic exchange is evaluated by thin layer chromotography TLC as described below.
1 μL of the fluorination mix is diluted 1:100 in 200 mM phosphate buffer pH 7.5, 100 mM K^19F and allowed to equilibrate. A “zero” time point is taken, consisting of 1 μL of the fluorination mix added to the above phosphate-KF solution, mixed and then 0.5 μL of this dilution is immediately spotted on a TLC plate. […] A separate dilution is made for each time point. Spots are dried on the plate briefly in ambient air. […]
Once completed, an aliquot (1.5 μL) from the fluorination reaction solution is the added to a volume of 300 μL of a chase solution containing 200 mM phosphate and 100 mM KF (pH 7.5). […] Autoradiograms are then generated and analyzed by a phosphoimager. The densities of the free fluoride spot and the ArBF3 spot are quantified. […]

SMILES: O=C1N[C@H]2[C@H](CS[C@H]2CCCCC(=O)N2CCN(C(=O)c3c(F)cc(F)c([B-](F)(F)F)c3F)CC2)N1 [(3), (2-(1,3,5-trifluoro-4-(trifluoroboryl)benzoyl)piperazin-1-yl) biotin]
- period in which 10% of the fluoride is solvolytically liberated [1]: ≥ 833 min

SMILES: O=C(O)c1cccc(B(O)O)c1 [Compound 12]
- retention of the fluorine radioisotope (18F) on TLC autoradiogram [2]: retain the fluorine radioisotope longer than compounds 10 or 19

SMILES: OB(O)c1cccc(F)c1F [Compound 22]
- retention of the fluorine radioisotope (18F) on TLC autoradiogram [2]: retain the fluorine radioisotope longer than compounds 10 or 19

Reference: patent US8574546B2, “Substituted aryl-fluoroborates as imaging agents” (The University of British Columbia, priority 2007, dated 2013)
